From patent publication US20240076394A1, “MODULATING THE IMMUNE RESPONSE USING ANTI-CD30 ANTIBODY-DRUG CONJUGATES” (Seagen Inc., priority 2020, published 2024)
“Also recorded” adds a separate entry of the source.

What was measured:
CD30+ cell lines = settings: in vitro; cited from earlier work
[1] = tested on: xenograft models of Hodgkin disease; settings: SCID mouse xenograft models of Hodgkin disease; cited from earlier work
[2] = tested on: CD30+ inducible T regulatory cells (iTregs); assay: In vitro depletion of CD30+ inducible T regulatory cells (flow cytometry live cell counts); assay type: cell-based, human; settings: iTregs from normal donors, CD3/CD28 beads 1:4 and 10 ng/ml IL-2, 4-5 days, titration of ADC; compared to non-binding control ADC hIgG-7782; FIG. 1A
Description: The ability of the anti-CD30 antibody-drug conjugate SGN-CD30C to deplete CD30+T regulatory (Tregs) was assessed in vitro. Inducible T regulatory cells (iTregs) were differentiated from cryopreserved CD4^+ T cells of two normal donors (Cellero, Bothell, Washington, Cat #1023) in X-Vivo 15 media (Lonza, Cat #04-418Q) supplemented with 50 ng/ml TGFβ1 (R&D, cat #100-B), 50 ng/ml IL-2 (R&D, Cat #202-IL/CF) and a 1:100 dilution of Lipid Mixture 1 (Sigma, Cat #L0288-100 ml) with CD3/CD28 beads (Miltenyi, Cat #130-095-345) at a 1:20 bead:cell ratio for 6 days at 37° C. and 5% CO2, followed by 2 days resting in X-Vivo 15 media only. Differentiated iTregs were then immunophenotyped prior to in vitro cytotoxicity assays with a viability dye and fluorescently labeled anti-human CD3, CD4, CD8, CD25 and Foxp3 (Biolegend and BD Pharmingen), and analyzed on an Attune NxT Flow Cytometer (Life Technologies). Following differentiation, the iTreg populations were 38% and 53% CD25^+FoxP3^+. Inducible Tregs from 3 additional normal donors were also ordered directly from Cellero (Cat #1042). […]

[3] = tested on: CD4+CD127lowCD25+ peripheral blood Tregs (CD30+); assay: In vitro depletion of CD30+ peripheral blood T regulatory cells (flow cytometry live cell counts); assay type: cell-based, human; settings: peripheral blood Tregs from 2 normal donors, CD3/CD28 beads 1:4 and 10 ng/ml IL-2, 4-5 days, titration of ADC; compared to non-binding control ADC hIgG-7782; FIG. 1B
Description: Cryopreserved inducible Tregs from 5 normal donors and CD4^+CD127^lowCD25^+ peripheral blood Tregs from 2 normal donors (Cellero and Stem Cell Technologies) were washed and resuspended in RPMI 1640 media containing 10% FBS and put into culture with CD3/CD28 beads at a 1:4 bead:cell ratio and 10 ng/ml IL-2 for 4-5 days in a 96-well round bottom plate at 37° C. and 5% CO2 in a titration of cAC10-7782 or non-specific control hIgG-7782. At the end of the incubation, cells were washed and stained with a Zombie Aqua viability dye and CD30 PE (Biolegend), and both total and CD30^+ live cell counts were determined using an Attune Nxt Flow cytometer. Untreated inducible Tregs were 37-80% CD30^+ and peripheral Tregs were 33-68% CD30^+ at the conclusion of the assay.
Cell counts are shown as the percent of untreated control.

| Molecule | growth arrest of CD30+ cell lines (CD30+ cell lines) | antitumor activity [1] | total CD30+ iTreg count (percent of untreated control) [2] | peripheral blood CD30+ Treg count (percent of untreated control) [3] |
| --- | --- | --- | --- | --- |
| cAC10: chimeric IgG1 monoclonal antibody that specifically binds CD30 | induces growth arrest | pronounced antitumor activity | – | – |
| SGN-CD30C: antibody-drug conjugate of Formula (IC): L is anti-CD30 antibody brentuximab, y is 1, z is 8, p is 8 (conjugate) VH: QIQLQQSGPEVVKPGASVKISCKASGYTFTDYYITWVKQKPGQGLEWIGWIYPGSGNTKYNEKFKGKATLTVDTSSSTAFMQLSSLTSEDTAVYFCANYGNYWFAYWGQGTQVTVSA VL: DIVLTQSPASLAVSLGQRATISCKASQSVDFDGDSYMNWYQQKPGQPPKVLIYAASNLESGIPARFSGSGSGTDFTLNIHPVEEEDAATYYCQQSNEDPWTFGGGTKLEIK | – | – | depleted; also recorded: dose-dependent reduction | depleted; also recorded: dose-dependent reduction |
